Data from patent US20240091162A1, “COMPOSITIONS AND METHODS FOR TREATING DEPRESSION AND ANXIETY” (THE TRUSTEES OF COLUMBIA UNIVERSITY IN THE CITY OF NEW YORK, priority 2021, published 2024).

Experiments:
[1] = in vivo FLX pharmacokinetic study and in vivo imaging of model drug distribution after delivery by microburs; conditions: after delivery by MBs
[2] = release of nanoparticles / SSRI from microbur and mesoporous silica nanoparticles; format: physicochemical
[3] = in vivo

SMILES | model drug distribution (in vivo imaging system) [1] | FLX release profile from MB ([2]; MB with different structures) | release of SSRI from MSN ([2]; from a 42 nm-sized MSN) | dispersion of FLX in the intestine [3]
O=C1OC2(c3ccc(O)cc3Oc3cc(O)ccc32)c2ccccc21 [Fluorescein] | selective dispersion of drug in the gut |  |  | 
CNCCC(Oc1ccc(C(F)(F)F)cc1)c1ccccc1 (stereo not shown) [Fluoxetine, fluoxetine] |  | sustainable FLX release profile | controlled release | local dispersion of FLX on small intestine epithelium
